Marks after values point to notes of the source that are not given here.
Assays:
[1] = tested on: estrus and ovulation in mares; conditions: prior knowledge; cited from earlier work
[2] = tested on: estrus and ovulation in light-horse mares; test: Suppression of estrus and ovulation in mares after a single sustained release injection; format: in vivo, mares (equine)
Description: Thirty one randomly selected light-horse mares are maintained on native pasture and ad libitum hay. Verification of normal reproductive cyclicity is determined by follicular ultrasound, teasing with a vigorous stallion, and radioimmunoassay of plasma progesterone concentrations. Mares displaying estrus (i.e. the estrus mare group) with plasma progesterone levels below 1 ng/mL are followed by ultrasound until a follicle 30 mm or greater is determined. When a follicle reaches 30 mm, 2 mL of 2000 IU human chorionic gonadotropin is administered to induce ovulation. Mares in the estrus group are subsequently followed by ultrasound until ovulation and corpus luteal formation are verified. Six days after ovulation is determined, mares in this group are given a 2 mL injection of dinoprost tromethamine and randomly assigned to a treatment regime set forth in Table 1.
Mares not displaying estrus (i.e. the non-estrus mare group) with progesterone concentrations above 1 ng/mL and the presence of a corpus luteum verified by ultrasound are given 2 mL dinoprost tromethamine. Once estrus is detected by teasing with a stallion, these mares are treated as the mares assigned to the estrus mare group. […]
The mares of each of the groups in Table 1 are followed via ultrasound every other day after treatment until a follicle 25 mm or greater is detected. […]
Injection site assessments are made on days 0, 1, 3, 6, and 9 post-treatment. […] Plasma concentrations of progesterone are measured with commercially available reagents (Diagnostic Systems Laboratories, Webster, Tex.). […] Data are analyzed by the Proc Mixed procedure of SAS (SAS Institute Inc., Cary, N.C.). Single point variables are analyzed via a one way ANOVA. Data from injection site scores are analyzed for effects of treatment, time, and treatment by time interactions with repeated measures. When a significant F is detected (P<0.05), the least significant difference (LSD) test is used to determine differences between groups within times.

[3] = tested on: injection site swelling in mares; test: Injection site assessment (swelling score 0-3) in mares; format: in vivo, mares (equine); conditions: compared to controls (FIG. 1)
Description: Injection site assessments are made on days 0, 1, 3, 6, and 9 post-treatment. Scores are based on a subjective scale of 0-3. Zero means no swelling; one means slight diameter swelling (i.e. about 12.5 mm); 2 means moderate diameter swelling (i.e. about 12.5 to 25 mm); and 3 means significant swelling (i.e. more than 25 mm). Plasma concentrations of progesterone are measured with commercially available reagents (Diagnostic Systems Laboratories, Webster, Tex.). Intra- and interassay CV and assay sensitivities are 5%, 8%, and 0.1 ng/mL. Data are analyzed by the Proc Mixed procedure of SAS (SAS Institute Inc., Cary, N.C.). Single point variables are analyzed via a one way ANOVA. Data from injection site scores are analyzed for effects of treatment, time, and treatment by time interactions with repeated measures. When a significant F is detected (P<0.05), the least significant difference (LSD) test is used to determine differences between groups within times.

SMILES	Effect on estrus and ovulation (background, in words) [1]	Effectiveness at delaying estrus and ovulation (in words) ([2]; compared to controls)	Days to ovulation ([2]; relative to administration of dinoprost tromethamine and treatment, mean ± SE)	Days to estrus ([2]; single injection on d0 together with 2 mL dinoprost tromethamine, mean ± SE)	Injection site swelling / biocompatibility (in words) [3]
C=CC[C@]1(O)CC[C@H]2[C@@H]3CCC4=CC(=O)CCC4=C3C=C[C@@]21C [Altrenogest, 17-α-Allyl-17-β-hydroxyoestra-4,9,11-trien-3-one]	suppress estrus and ovulation				
CC(=O)O[C@]1(C(C)=O)CC[C@H]2[C@@H]3C[C@H](C)C4=CC(=O)CC[C@]4(C)[C@H]3CC[C@@]21C [Medroxyprogesterone, Medroxyprogesterone acetate]	not to effect estrus, ovulation or pregnancy maintenance	not effective at delaying estrus or ovulation	11.3 ± 2.14^a days	6.2 ± 1.38^a days	most biocompatible formulation
CC(=O)[C@H]1CC[C@H]2[C@@H]3CCC4=CC(=O)CC[C@]4(C)[C@H]3CC[C@]12C [progesterone]	suppress estrus and ovulation				
